According to patent publication US10112935B2, “Indazolyl thiadiazolamines and related compounds for inhibition of Rho-associated protein kinase and the treatment of disease” (Lycera Corporation, priority 2015, dated 2018):

Tests used:
[1] = target: GST-tagged human ROCK2 catalytic domain 1-553 (Homo sapiens (Human), UniProt O75116); assay: Inhibition of Rho-associated protein kinase isoform 2 (LANCE Ultra ULight-CREBtide FRET kinase assay); assay type: biochemical; settings: for IC50: 30 μM was the highest concentration analyzed; for Selectivity for ROCK2 over ROCK1 (IC50 ROCK1 / IC50 ROCK2): selectivity ROCK2 vs ROCK1
Method in brief: (§1)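 Baculovirus-expressed kinase phosphorylated ULight-CREBtide for 90 min at room temperature before the reaction was stopped with 10 mM EDTA. Phospho-substrate was detected by TR-FRET with 1 nM Europium-anti-phospho-CREB (Ser133) antibody after 60 min at room temperature.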

[2] = target: GST-tagged human ROCK1 catalytic domain 1-477 (Homo sapiens (Human), UniProt Q13464); assay: Inhibition of Rho-associated protein kinase isoform 1 (LANCE Ultra ULight-CREBtide FRET kinase assay); assay type: biochemical; settings: 30 μM was the highest concentration analyzed
Method in brief: as §1

GST-tagged human ROCK2 catalytic domain 1-553, sequence (O75116 1-553): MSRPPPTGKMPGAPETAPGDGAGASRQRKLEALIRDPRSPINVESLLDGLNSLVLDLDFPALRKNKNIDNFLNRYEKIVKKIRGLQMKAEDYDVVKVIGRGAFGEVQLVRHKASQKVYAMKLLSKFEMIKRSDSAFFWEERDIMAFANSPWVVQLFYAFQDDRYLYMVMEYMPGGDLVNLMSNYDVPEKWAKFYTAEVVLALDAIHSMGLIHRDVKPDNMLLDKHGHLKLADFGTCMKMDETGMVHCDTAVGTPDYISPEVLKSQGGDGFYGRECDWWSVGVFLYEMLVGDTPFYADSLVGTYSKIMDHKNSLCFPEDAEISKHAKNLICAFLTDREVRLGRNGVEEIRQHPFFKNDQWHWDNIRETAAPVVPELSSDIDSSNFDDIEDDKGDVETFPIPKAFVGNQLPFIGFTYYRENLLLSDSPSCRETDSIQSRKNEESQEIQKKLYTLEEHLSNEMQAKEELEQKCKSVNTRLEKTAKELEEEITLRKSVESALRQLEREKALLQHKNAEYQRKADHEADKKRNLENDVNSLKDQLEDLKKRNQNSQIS
GST-tagged human ROCK1 catalytic domain 1-477, sequence (Q13464 1-477): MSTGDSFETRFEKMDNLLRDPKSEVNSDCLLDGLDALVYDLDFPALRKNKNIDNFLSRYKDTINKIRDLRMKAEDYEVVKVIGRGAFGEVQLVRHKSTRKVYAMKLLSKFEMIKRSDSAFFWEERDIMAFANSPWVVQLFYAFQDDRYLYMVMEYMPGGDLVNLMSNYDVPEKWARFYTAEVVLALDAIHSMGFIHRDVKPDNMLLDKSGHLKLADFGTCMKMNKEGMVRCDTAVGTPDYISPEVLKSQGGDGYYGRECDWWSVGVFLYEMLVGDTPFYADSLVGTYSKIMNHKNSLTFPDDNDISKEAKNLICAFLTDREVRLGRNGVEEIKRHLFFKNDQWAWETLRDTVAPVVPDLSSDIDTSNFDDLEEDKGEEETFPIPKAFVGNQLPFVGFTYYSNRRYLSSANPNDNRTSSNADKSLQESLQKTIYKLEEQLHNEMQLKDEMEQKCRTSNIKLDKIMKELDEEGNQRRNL

SMILES	IC50 [1] [µM]	Selectivity for ROCK2 over ROCK1 (IC50 ROCK1 / IC50 ROCK2) [1]	IC50 [2] [µM]
NCCn1cc(C(=O)Nc2cccc(-c3nnc(Nc4ccc5[nH]ncc5c4)s3)c2)cn1 [Example 35CE]	< 1	>5	< 1
CC(=O)Nc1ccc(S(C)(=O)=O)c(-c2nnc(Nc3ccc4[nH]ncc4c3Cl)s2)c1 [Example 48E]	1 to 15	<5	15 to 30
O=C(Nc1cc(-c2nnc(Nc3ccc4[nH]ncc4c3Cl)s2)ccn1)c1ccc(F)cc1.O=C(O)C(F)(F)F [Example 35B]	< 1	<5	< 1
Cc1coc(-c2cc(F)cc(-c3nnc(Nc4ccc5[nH]ncc5c4Cl)s3)c2)n1 [Example 46D]	< 1	>100	> 30
CC1(C)COC(c2cccc(-c3nnc(Nc4ccc5[nH]ncc5c4Cl)s3)c2)=N1 [Example 46F]	< 1	>5	1 to 15
COCCn1ccnc1-c1cccc(-c2nnc(Nc3ccc4[nH]ncc4c3Cl)s2)c1.O=C(O)C(F)(F)F [Example 44, N-(4-Chloro-1H-indazol-5-yl)-5-(3-(1-(2-methoxyethyl)-1H-imidazol-2-yl)phenyl)-1,3,4-thiadiazol-2-amine 2,2,2-trifluoroacetic Acid Solvate]	< 1	>5	< 1
Cn1cc(C(=O)Nc2cncc(-c3nnc(Nc4ccc5[nH]ncc5c4Cl)s3)c2)cn1 [Example 35BU]	< 1	>5	< 1
O=C(Cc1ccon1)Nc1cccc(-c2nnc(Nc3ccc4[nH]ncc4c3Cl)s2)c1 [Example 35BG]	< 1	>100	> 30
CC(=O)Nc1cc(C(=O)O)cc(-c2nnc(Nc3ccc4[nH]ncc4c3)s2)c1 [Example 48AE]	< 1	–	< 1
O=C(Nc1cccc(-c2nnc(Nc3ccc4[nH]ncc4c3Cl)s2)c1)c1cc(O)cc(O)c1 [Example 35AS]	< 1	>50	< 1
CC(C)NC(=O)COc1cccc(-c2nnc(Nc3ccc4[nH]ncc4c3)s2)c1 [Example 35CP]	< 1	>5	15 to 30
CC(=O)Nc1cccc(-c2nnc(Nc3ccc4[nH]ncc4c3C(C)C)s2)c1 [Example 35I]	1 to 15	>5	> 30
CCCOC(=O)Nc1cc(-c2nnc(Nc3ccc4[nH]ncc4c3Cl)s2)ccn1.O=C(O)C(F)(F)F [Example 35F]	< 1	>100	> 30
CC1CCCCC1C(=O)Nc1cccc(-c2nnc(Nc3ccc4[nH]ncc4c3Cl)s2)c1 (centres unmarked) [Example 35H]	< 1	>5	1 to 15
COc1ccc(C(=O)Nc2cccc(-c3nnc(Nc4ccc5[nH]ncc5c4Cl)s3)c2)cc1 [Example 35BS]	< 1	<5	< 1
Cn1cc(C(=O)Nc2cc(F)c(F)c(-c3nnc(Nc4ccc5[nH]ncc5c4)s3)c2)cn1 [Example 35BZ]	< 1	>100	> 30
COc1cccc(-c2cccc(-c3nnc(Nc4ccc5[nH]ncc5c4Cl)s3)c2)n1 [Example 46H]	< 1	>100	> 30
N#Cc1ccc(CC(=O)Nc2cccc(-c3nnc(Nc4ccc5[nH]ncc5c4Cl)s3)c2)cc1 [Example 35BK]	< 1	>100	> 30
O=C(Nc1cc(-c2nnc(Nc3ccc4[nH]ncc4c3Cl)s2)ccn1)N1CCOCC1 [Example 35A]	< 1	>5	< 1
N[C@@H](Cc1ccccc1)C(=O)Nc1cccc(-c2nnc(Nc3ccc4[nH]ncc4c3Cl)s2)c1 [Example 35AV]	< 1	>5	1 to 15
Nc1cncc(-c2nnc(Nc3ccc4[nH]ncc4c3)s2)c1.O=C(O)C(F)(F)F [Example 35CS]	1 to 15	<5	< 1
O=C(O)C(F)(F)F.O=C(O)c1cc(-c2ncco2)cc(-c2nnc(Nc3ccc4[nH]ncc4c3Cl)s2)c1 [Example 46N]	< 1	>5	< 1
O=C(Nc1cccc(-c2nnc(Nc3ccc4[nH]ncc4c3Cl)s2)c1)C1CNC1 [Example 35AD]	< 1	>5	1 to 15
Clc1c(Nc2nnc(-c3cncc(-c4ncco4)c3)s2)ccc2[nH]ncc12 [Example 46P]	< 1	>100	> 30

Next, values leading:

IC50 [1] [µM]	Selectivity for ROCK2 over ROCK1 (IC50 ROCK1 / IC50 ROCK2) [1]	IC50 [2] [µM]	SMILES
15 to 30	<5	> 30	CN(c1nnc(-c2cccc(NC(=O)Cc3ccc(C#N)cc3)c2)s1)c1ccc2[nH]ncc2c1Cl [Example 54B]
< 1	<5	< 1	Cc1cccc(CNC(=O)c2cccc(-c3nnc(Nc4ccc5[nH]ncc5c4Cl)s3)c2)n1 [Example 75G]
< 1	>100	> 30	O=C(O)c1ccc(-c2cn3cccc(-c4nnc(Nc5ccc6[nH]ncc6c5Cl)s4)c3n2)cc1 [Example 50E]
1 to 15	–	1 to 15	CC(=O)Nc1cccc(-c2nnc(N(C)c3ccc4[nH]ncc4c3)s2)c1 [Example 54D]
< 1	>100	> 30	CC(=O)c1ccc(-c2cn3cccc(-c4nnc(Nc5ccc6[nH]ncc6c5Cl)s4)c3n2)cc1 [Example 51, 1-(4-(8-(5-((4-Chloro-1H-indazol-5-yl)amino)-1,3,4-thiadiazol-2-yl)imidazo[1,2-a]pyridin-2-yl)phenyl)ethan-1-one]
< 1	>5	< 1	CC(=O)Nc1ccc(C)c(-c2nnc(Nc3ccc4[nH]ncc4c3Cl)s2)c1.O=C(O)C(F)(F)F [Example 48I]
< 1	>5	< 1	Cn1ccc(C(=O)Nc2cccc(-c3nnc(Nc4ccc5[nH]ncc5c4)s3)c2)n1 [Example A-42]
< 1	>100	> 30	Cc1cnoc1C(=O)Nc1cccc(-c2nnc(Nc3ccc4[nH]ncc4c3)s2)c1 [Example A-44]
< 1	>100	> 30	Cn1cc(C(=O)Nc2cccc(-c3nnc(Nc4ccc5[nH]ncc5c4)s3)c2)cn1 [Example A-41]
< 1	>5	1 to 15	Cc1cc(C(=O)Nc2cccc(-c3nnc(Nc4ccc5[nH]ncc5c4)s3)c2)[nH]n1 [Example A-39]
< 1	>100	> 30	c1cc(-c2ncco2)cc(-c2nnc(Nc3ccc4[nH]ncc4c3)s2)c1 [Example A-30]
< 1	>5	< 1	O=C(Nc1cc(-c2nnc(Nc3ccc4[nH]ncc4c3Cl)s2)ccc1C(F)(F)F)c1cnn(CCO)c1 [Example 48M]
1 to 15	<5	1 to 15	Cc1cnn(CC(=O)Nc2cccc(-c3nnc(N(C)c4ccc5[nH]ncc5c4Cl)s3)c2)c1 [Example 54C]
> 30	–	> 30	O=C(Nc1cccc(-c2nnc(Nc3ccc4[nH]ncc4c3F)s2)c1)c1c[nH]cn1 [Example 75N]
< 1	>100	> 30	Cn1c(C2CCOCC2)nc2c(-c3nnc(Nc4ccc5[nH]ncc5c4)s3)cccc21 [Example 56F]
< 1	>100	> 30	Clc1c(Nc2nnc(-c3cccn4cc(-c5ccc(Br)cc5)nc34)s2)ccc2[nH]ncc12 [Example 52E]
> 30	–	> 30	CN(c1nnc(-c2cccc(NC(=O)Cc3ccc(F)cc3)c2)s1)c1ccc2[nH]ncc2c1Cl [Example 75U]
1 to 15	>5	> 30	Nc1cncc(-c2nnc(Nc3ccc4[nH]ncc4c3)s2)n1 [Example A-13]
< 1	>100	> 30	O=C(Nc1cccc(-c2nnc(Nc3ccc4[nH]ncc4c3)s2)c1)c1c[nH]cn1 [Example A-49]
1 to 15	>5	> 30	c1cc(-c2nnc(Nc3ccc4[nH]ncc4c3)s2)cc(N2CCNCC2)c1 [Example 75H]
< 1	>100	> 30	CS(=O)(=O)Nc1cccc(-c2nnc(Nc3ccc4[nH]ncc4c3)s2)c1 [Example A-19]
1 to 15	<5	1 to 15	c1cc2[nH]ncc2cc1Nc1nnc(C2CNCCN2)s1 (centres unmarked) [Example A-29]
1 to 15	>5	1 to 15	CCS(=O)(=O)Nc1cncc(-c2nnc(Nc3ccc4[nH]ncc4c3)s2)c1 [Example A-14]
> 30	<5	> 30	OCCN(c1ccc2[nH]ncc2c1)c1nnc(-c2cnccn2)s1 [Example A-12]
